Measurements: patent US6596863B2, “Medical composition containing nitroetheneamine Derivative or salt there of as active constituent” (Ishihara Sangyo Kaisha, Ltd., priority 1998, dated 2003)
Where two headings read alike, the source gives them in different places.

Key:
[1] = molecular target: T1, human MMP-9 (gelatinase B) (Homo sapiens, UniProt P14780); test: Inhibition activity against human MMP-9 (gelatinase B), fluorescent peptide substrate; type: biochemical
T1 construct: endogenous in cells; host or cells: HT1080 human fibrosarcoma cells (ATCC CCL-121), PMA-stimulated; enzyme purified from the culture supernatant
Outline: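 MMP-9 purified from PMA-stimulated (10 ng/ml) HT1080 supernatant, or commercial enzyme (0.0125-0.025 unit/ml or 0.2 μg/ml final), incubated with compound and 10 μM final Mca-Pro-Leu-Gly-Leu-Dpa-Ala-Arg-NH2 fluorescent substrate at 37 °C for 3 h in the dark. Precursor enzyme activated with APMA.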

[2] = compounds of the formula (I), 1st measurement, read-out: MMP-9 inhibition activities IC50, 1st
[3] = compounds of the formula (I), 2nd measurement, read-out: MMP-9 inhibition activities IC50, 2nd
[4] = compounds of the formula (I), average of 1st and 2nd (or single measurement), read-out: MMP-9 inhibition activities IC50, Average
[5] = intermediates, compounds of the formula (IV), 1st measurement, read-out: MMP-9 inhibition activities IC50, 1st
[6] = intermediates, compounds of the formula (IV), 2nd measurement, read-out: MMP-9 inhibition activities IC50, 2nd
[7] = intermediates, compounds of the formula (IV), average of 1st and 2nd (or single measurement), read-out: MMP-9 inhibition activities IC50, Average

T1 sequence (P14780 107-707 limits assumed): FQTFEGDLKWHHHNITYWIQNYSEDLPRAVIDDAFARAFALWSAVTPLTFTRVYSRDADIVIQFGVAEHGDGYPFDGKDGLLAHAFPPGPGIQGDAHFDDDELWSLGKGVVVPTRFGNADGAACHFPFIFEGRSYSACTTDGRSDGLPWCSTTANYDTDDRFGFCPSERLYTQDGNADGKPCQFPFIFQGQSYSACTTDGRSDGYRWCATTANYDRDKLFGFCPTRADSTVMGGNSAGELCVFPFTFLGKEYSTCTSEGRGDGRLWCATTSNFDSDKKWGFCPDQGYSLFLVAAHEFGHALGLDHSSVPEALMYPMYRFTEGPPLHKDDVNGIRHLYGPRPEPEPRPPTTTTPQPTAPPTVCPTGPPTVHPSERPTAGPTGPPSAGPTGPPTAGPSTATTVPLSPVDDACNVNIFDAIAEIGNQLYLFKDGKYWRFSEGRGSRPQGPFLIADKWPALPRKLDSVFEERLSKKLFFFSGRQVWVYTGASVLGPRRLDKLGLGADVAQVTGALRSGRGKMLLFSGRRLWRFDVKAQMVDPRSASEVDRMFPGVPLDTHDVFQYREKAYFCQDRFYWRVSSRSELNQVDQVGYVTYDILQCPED

| Structure (SMILES) | IC50 [1, 2] [µM] | IC50 [1, 3] [µM] | IC50 [1, 4] [µM] | melting point | IC50 [1, 5] [µM] | IC50 [1, 6] [µM] | IC50 [1, 7] [µM] |
| --- | --- | --- | --- | --- | --- | --- | --- |
| C=CCOc1cc(C(F)(F)F)cc(NNC(=C[N+](=O)[O-])NC)n1 [compound 130] | 7.7 | 8.4 | 8.1 | 175 °C (dec.) |  |  |  |
| CNC(=C[N+](=O)[O-])NN=Cc1ccc(C(F)(F)F)cc1 [compound 166] | 7.8 |  | 7.8 | 188 to 189 °C |  |  |  |
| Cc1ccc(NC(=C[N+](=O)[O-])NN)cc1 [compound 48] | 20.6 | 18.2 | 19.4 | 191 °C (dec.) |  |  |  |
| CNC(=C[N+](=O)[O-])NNc1cc(OCCOC)cc(C(F)(F)F)c1 [compound 182] | 7 | 5.6 | 6.4 | 138 °C |  |  |  |
| COc1ccc(NC(=C[N+](=O)[O-])SC)cn1 [Intermediate 49] |  |  |  | 134 to 137 °C | 29.5 | 29 | 29.3 |
| NNC(=C[N+](=O)[O-])NCc1ccncc1 [compound 55] | 25.3 | 30 | 27.7 | 176 °C (dec.) |  |  |  |
| CCCCOCCOc1cc(C(F)(F)F)cc(NNC(=C[N+](=O)[O-])NC)n1 [compound 192] | 8.1 | 13.6 | 10.9 | 128 °C |  |  |  |
| NNC(=C[N+](=O)[O-])NN1CCOCC1 [compound 67] | 56.9 | 43.1 | 50 | 187 °C (dec.) |  |  |  |
| CNC(=C[N+](=O)[O-])NN=C(C)C [compound 25] | 21.9 | 30 | 26 | 136 °C |  |  |  |
| CNC(=C[N+](=O)[O-])NNc1nc(OC)nc(OC)n1 [compound 104] | 21.1 | 17.5 | 19.3 | 202 to 203 °C (dec.) |  |  |  |
| CNC(=C[N+](=O)[O-])NNc1cc(C(F)(F)F)cc(SC)n1 [compound 125] | 10.1 | 15.8 | 13 | 192 °C (dec.) |  |  |  |
| CNC(=C[N+](=O)[O-])NN=C(C)c1ccccn1 [compound 33] | 30.6 | 31.9 | 31.8 | 170 °C (dec.) |  |  |  |
| CNC(=C[N+](=O)[O-])NNc1cc(C(F)(F)F)cc(OCC2CCCCO2)n1 (stereo not shown) [compound 128] | 19.2 | 10.3 | 13 | 93 to 95 °C |  |  |  |
| CNC(=C[N+](=O)[O-])NN=C(C)c1ccncc1 [compound 38] | 13.7 | 19.1 | 16.4 | 199 °C (dec.) |  |  |  |
| CNC(=C[N+](=O)[O-])NNc1cc(C(F)(F)F)cc(Oc2ccccc2)n1 [compound 126] | 29.4 | 21.8 | 25.6 | 141 °C (dec.) |  |  |  |
| CNC(=C[N+](=O)[O-])NNc1cc(C(F)(F)F)cc(OCCCc2ccccn2)n1 [compound 118] | 32.3 | 35.1 | 33.7 | 169 °C (dec.) |  |  |  |
| CSC(=C[N+](=O)[O-])Nc1ccc2c(c1)C(=O)CO2 [Intermediate 52] |  |  |  | 221 to 222 °C (dec.) | 61.5 | 50.4 | 56 |
| CCOc1ccc(NC(=C[N+](=O)[O-])NN)cc1 [compound 70] | 42.1 | 57.1 | 49.6 | 198 °C (dec.) |  |  |  |
| CNC(=C[N+](=O)[O-])NN(C)c1ccc(C(F)(F)F)cn1 [compound 36] | 19.7 | 24.3 | 22 | 153 to 154 °C |  |  |  |

| Structure (SMILES) | IC50 [1, 2] [µM] | IC50 [1, 3] [µM] | IC50 [1, 4] [µM] | melting point | IC50 [1, 5] [µM] | IC50 [1, 6] [µM] | IC50 [1, 7] [µM] |
| --- | --- | --- | --- | --- | --- | --- | --- |
| CCCCOc1cc(C(F)(F)F)cc(NNC(=C[N+](=O)[O-])NC)n1 [compound 178] | 11.8 | 12.5 | 12.2 | 161 °C (dec.) |  |  |  |
| CNC(=C[N+](=O)[O-])NNc1ccc(OC(F)(F)F)cc1 [compound 95] | 26.7 | 27 | 26.9 | 176 to 177 °C (dec.) |  |  |  |
| CSC(=C[N+](=O)[O-])Nc1ccc(F)cc1 [Intermediate 21] |  |  |  | 156 °C | 31.6 | 54.4 | 43 |
| CNC(=C[N+](=O)[O-])NNc1nc(-c2ccccc2)nc2ccccc12 [compound 148] | 33.5 | 21.7 | 27.6 | 272 °C (dec.) |  |  |  |
| NNC(=C[N+](=O)[O-])Nc1cccnc1 [compound 50] | 25.7 | 23 | 24.3 | 175 °C (dec.) |  |  |  |
| CNC(=C[N+](=O)[O-])NNc1cc(C(F)(F)F)cc(C)n1 [compound 27] | 26.6 | 24.5 | 25.6 | 161 to 162 °C |  |  |  |
| NNC(=C[N+](=O)[O-])NC1CCCC1 [compound 91] | 20 | 35.7 | 27.9 | 192 °C (dec.) |  |  |  |
| CCOC(=O)Cc1ccc(NC(=C[N+](=O)[O-])NN)cc1 [compound 73] | 44.6 | 47.9 | 46.3 | 68 to 70 °C |  |  |  |
| O=[N+]([O-])C=C(NNc1cc(C(F)(F)F)cc(Cl)n1)NS(=O)(=O)c1ccc(-c2ccccc2)cc1 [compound 162] | 6.3 |  | 6.3 | 171 to 174 °C |  |  |  |
| CNC(=C[N+](=O)[O-])NNc1cc(C(F)(F)F)cc(OCc2ccccn2)n1 [compound 122] | 12.6 | 16.3 | 14.5 | 170 °C (dec.) |  |  |  |
| NNC(=C[N+](=O)[O-])NC1CC1 [compound 90] | 18.7 | 37.4 | 28 | 145 °C (dec.) |  |  |  |
| CNC(=C[N+](=O)[O-])NN=C(C)OC [compound 26] | 31.9 | 31.5 | 31.7 | 159 °C (dec.) |  |  |  |
| CNC(=C[N+](=O)[O-])NNc1nc(OC)cc(OC)n1 [compound 105] | 14.2 | 17 | 15.6 | 166 to 167 °C (dec.) |  |  |  |
| CCS(=O)(=O)NC(=C[N+](=O)[O-])NNc1cc(C(F)(F)F)cc(Cl)n1 [compound 161] | 6 |  | 6 | 114 to 119 °C (dec.) |  |  |  |
| NNC(=C[N+](=O)[O-])NCc1ccccn1 [compound 79] | 39 | 36.6 | 37.8 | 190 °C (dec.) |  |  |  |
| CNC(=C[N+](=O)[O-])NNc1cc(C(F)(F)F)cc(OCc2ccco2)n1 [compound 120] | 39.8 | 39.4 | 39.6 | 154 °C (dec.) |  |  |  |
| CNC(=C[N+](=O)[O-])NNc1ccnc2cc(C(F)(F)F)ccc12 [compound 147] | 35 | 39.9 | 37.5 | 235 °C (dec.) |  |  |  |
| CCOCCCOc1cc(C(F)(F)F)cc(NNC(=C[N+](=O)[O-])NC)n1 [compound 197] | 10.3 | 10.9 | 10.6 | 147 °C |  |  |  |
| CNC(=C[N+](=O)[O-])NNc1cc(C(F)(F)F)cc(OCC(F)(F)F)n1 [compound 181] | 11.6 |  | 11.6 | 180 °C (dec.) |  |  |  |
